According to PubChem BioAssay AID1259407 (Chemical Carcinogenesis Research Information System (CCRIS), 2018):
Activity calls are given as the source filed them. No rule for the calls is given here.

Tested on: CCRIS mutagenicity, Ames/micronucleus/aberration tests
Experiment: CCRIS mutagenicity studies

Measured: mutagenic call

CN=C=O
inactive: Test System: AMES SALMONELLA TYPHIMURIUM, Strain/Indicator: TA97A, Metabolic Activation: NONE, Method: PREINCUBATION inactive; negative | Test System: AMES SALMONELLA TYPHIMURIUM, Strain/Indicator: TA97A, Metabolic Activation: RAT, LIVER, S-9, AROCLOR 1254, Method: PREINCUBATION inactive; negative | Test System: AMES SALMONELLA TYPHIMURIUM, Strain/Indicator: TA97A, Metabolic Activation: RAT, LIVER, S-9, BETA-NAPHTHOFLAVONE, Method: PREINCUBATION inactive; negative | Test System: AMES SALMONELLA TYPHIMURIUM, Strain/Indicator: TA97A, Metabolic Activation: RAT, LIVER, S-9, SODIUM PHENOBARBITONE, Method: PREINCUBATION inactive; negative | Test System: AMES SALMONELLA TYPHIMURIUM, Strain/Indicator: TA98, Metabolic Activation: HAMSTER, LIVER, S-9, AROCLOR 1254, Method: STANDARD PLATE inactive; negative | Test System: AMES SALMONELLA TYPHIMURIUM, Strain/Indicator: TA98, Metabolic Activation: NONE, Method: PREINCUBATION inactive; negative | Test System: AMES SALMONELLA TYPHIMURIUM, Strain/Indicator: TA98, Metabolic Activation: NONE, Method: STANDARD PLATE inactive; negative | Test System: AMES SALMONELLA TYPHIMURIUM, Strain/Indicator: TA98, Metabolic Activation: RAT, LIVER, S-9, AROCLOR 1254, Method: PREINCUBATION inactive; negative | Test System: AMES SALMONELLA TYPHIMURIUM, Strain/Indicator: TA98, Metabolic Activation: RAT, LIVER, S-9, AROCLOR 1254, Method: STANDARD PLATE inactive; negative | Test System: AMES SALMONELLA TYPHIMURIUM, Strain/Indicator: TA98, Metabolic Activation: RAT, LIVER, S-9, BETA-NAPHTHOFLAVONE, Method: PREINCUBATION inactive; negative | Test System: AMES SALMONELLA TYPHIMURIUM, Strain/Indicator: TA98, Metabolic Activation: RAT, LIVER, S-9, SODIUM PHENOBARBITONE, Method: PREINCUBATION inactive; negative | Test System: AMES SALMONELLA TYPHIMURIUM, Strain/Indicator: TA100, Metabolic Activation: HAMSTER, LIVER, S-9, AROCLOR 1254, Method: STANDARD PLATE inactive; negative | Test System: AMES SALMONELLA TYPHIMURIUM, Strain/Indicator: TA100, Metabolic Activation: NONE, Method: STANDARD PLATE inactive; negative | Test System: AMES SALMONELLA TYPHIMURIUM, Strain/Indicator: TA100, Metabolic Activation: RAT, LIVER, S-9, AROCLOR 1254, Method: PREINCUBATION inactive; negative | Test System: AMES SALMONELLA TYPHIMURIUM, Strain/Indicator: TA100, Metabolic Activation: RAT, LIVER, S-9, AROCLOR 1254, Method: STANDARD PLATE inactive; negative | Test System: AMES SALMONELLA TYPHIMURIUM, Strain/Indicator: TA100, Metabolic Activation: RAT, LIVER, S-9, BETA-NAPHTHOFLAVONE, Method: PREINCUBATION inactive; negative | Test System: AMES SALMONELLA TYPHIMURIUM, Strain/Indicator: TA100, Metabolic Activation: RAT, LIVER, S-9, SODIUM PHENOBARBITONE, Method: PREINCUBATION inactive; negative | Test System: AMES SALMONELLA TYPHIMURIUM, Strain/Indicator: TA102, Metabolic Activation: NONE, Method: PREINCUBATION inactive; negative | Test System: AMES SALMONELLA TYPHIMURIUM, Strain/Indicator: TA102, Metabolic Activation: RAT, LIVER, S-9, AROCLOR 1254, Method: PREINCUBATION inactive; negative | Test System: AMES SALMONELLA TYPHIMURIUM, Strain/Indicator: TA102, Metabolic Activation: RAT, LIVER, S-9, BETA-NAPHTHOFLAVONE, Method: PREINCUBATION inactive; negative | Test System: AMES SALMONELLA TYPHIMURIUM, Strain/Indicator: TA102, Metabolic Activation: RAT, LIVER, S-9, SODIUM PHENOBARBITONE, Method: PREINCUBATION inactive; negative | Test System: AMES SALMONELLA TYPHIMURIUM, Strain/Indicator: TA104, Metabolic Activation: RAT, LIVER, S-9, AROCLOR 1254, Method: PREINCUBATION inactive; negative | Test System: AMES SALMONELLA TYPHIMURIUM, Strain/Indicator: TA104, Metabolic Activation: RAT, LIVER, S-9, BETA-NAPHTHOFLAVONE, Method: PREINCUBATION inactive; negative | Test System: AMES SALMONELLA TYPHIMURIUM, Strain/Indicator: TA104, Metabolic Activation: RAT, LIVER, S-9, SODIUM PHENOBARBITONE, Method: PREINCUBATION inactive; negative | Test System: AMES SALMONELLA TYPHIMURIUM, Strain/Indicator: TA1535, Metabolic Activation: HAMSTER, LIVER, S-9, AROCLOR 1254, Method: STANDARD PLATE inactive; negative | Test System: AMES SALMONELLA TYPHIMURIUM, Strain/Indicator: TA1535, Metabolic Activation: NONE, Method: STANDARD PLATE inactive; negative | Test System: AMES SALMONELLA TYPHIMURIUM, Strain/Indicator: TA1535, Metabolic Activation: RAT, LIVER, S-9, AROCLOR 1254, Method: STANDARD PLATE inactive; negative | Test System: AMES SALMONELLA TYPHIMURIUM, Strain/Indicator: TA1537, Metabolic Activation: HAMSTER, LIVER, S-9, AROCLOR 1254, Method: STANDARD PLATE inactive; negative | Test System: AMES SALMONELLA TYPHIMURIUM, Strain/Indicator: TA1537, Metabolic Activation: NONE, Method: STANDARD PLATE inactive; negative | Test System: AMES SALMONELLA TYPHIMURIUM, Strain/Indicator: TA1537, Metabolic Activation: RAT, LIVER, S-9, AROCLOR 1254, Method: STANDARD PLATE inactive; negative | Test System: AMES SALMONELLA TYPHIMURIUM, Strain/Indicator: TA1538, Metabolic Activation: HAMSTER, LIVER, S-9, AROCLOR 1254, Method: STANDARD PLATE inactive; negative | Test System: AMES SALMONELLA TYPHIMURIUM, Strain/Indicator: TA1538, Metabolic Activation: NONE, Method: STANDARD PLATE inactive; negative | Test System: AMES SALMONELLA TYPHIMURIUM, Strain/Indicator: TA1538, Metabolic Activation: RAT, LIVER, S-9, AROCLOR 1254, Method: STANDARD PLATE inactive; negative | Test System: MOUSE LYMPHOMA, Strain/Indicator: L5178Y (TK+/TK-), Metabolic Activation: RAT, LIVER, S-9, AROCLOR 1254, Method: SUSPENSION/PLATE inactive; negative. reevaluation of results: negative
